Assay results as given in PubChem BioAssay (NCI).
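Values below derive from 48-hour exposures of cells grown in 96-well plates, with endpoints linearly interpolated between the two concentrations bracketing the appropriate inhibition level. TGI marks complete inhibition of growth.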

What was measured:
Assay in all cases: NCI-60 cell line screen, 48 h
[1] = system: IGROV1 ovarian
[2] = system: KM12 colon
[3] = system: A549 NSCLC
[4] = system: M14 melanoma
[5] = system: EKVX NSCLC
[6] = system: SF-268 CNS
[7] = system: U251 CNS
[8] = system: HCC-2998 colon
[9] = system: OVCAR-5 ovarian
[10] = system: HCT-116 colon
[11] = system: NCI-H522 lung
[12] = system: OVCAR-3 ovarian
[13] = system: NCI-H226 lung
[14] = system: UACC-257 melanoma
[15] = system: MDA-N
[16] = system: BT-549 breast
[17] = system: SK-MEL-28 melanoma
[18] = system: SK-MEL-2 melanoma
[19] = system: SR leukemia
[20] = system: UACC-62 melanoma
[21] = system: SNB-19 CNS
[22] = system: NCI-H23 lung
[23] = system: PC-3 prostate
[24] = system: HT29 colon
[25] = system: T-47D breast
[26] = system: SNB-75 CNS
[27] = system: K-562 leukemia
[28] = system: MDA-MB-231 breast
[29] = system: MCF7 breast
[30] = system: MOLT-4 leukemia
[31] = system: HCT-15 colon
[32] = system: HS 578T breast
[33] = system: SW-620 colon
[34] = system: SN12C renal
[35] = system: MDA-MB-435
[36] = system: OVCAR-4 ovarian
[37] = system: RPMI-8226 leukemia
[38] = system: SK-OV-3 ovarian
[39] = system: MALME-3M melanoma
[40] = system: NCI-H460 lung
[41] = system: CAKI-1 renal
[42] = system: TK-10 renal
[43] = system: DU-145 prostate
[44] = system: NCI/ADR-RES ovarian
[45] = system: SK-MEL-5 melanoma
[46] = system: SF-539 CNS
[47] = system: RXF 393 renal
[48] = system: A498 renal
[49] = system: OVCAR-8 ovarian
[50] = system: CCRF-CEM leukemia
[51] = system: HL-60(TB) leukemia
[52] = system: COLO 205 colon
[53] = system: 786-0 renal
[54] = system: UO-31 renal
[55] = system: LOX IMVI melanoma
[56] = system: SF-295 CNS
[57] = system: ACHN renal
[58] = system: HOP-92 NSCLC
[59] = system: HOP-62 NSCLC

Measured: TGI

CN=C(n1ccnc1)n1ccnc1
> 100 µM: [1] | [2] | [3] | [4] | [5] | [6] | [7] | [8] | [9] | [10] | [11] | [12] | [13] | [14] | [15] | [16] | [17] | [18] | [19] | [20] | [21] | [22] | [23] | [24] | [25] | [26] | [27] | [28] | [29] | [30] | [31] | [32] | [33] | [34] | [35] | [36] | [37] | [38] | [39] | [40] | [41] | [42] | [43] | [44] | [45] | [46] | [47] | [48] | [49] | [50] | [51] | [52] | [53] | [54] | [55]

O=S(=O)(O)CCCc1cccc2ccccc12
> 100 µM: [1] | [2] | [3] | [4] | [5] | [6] | [7] | [8] | [9] | [10] | [11] | [12] | [13] | [14] | [56] | [15] | [16] | [17] | [18] | [57] | [19] | [20] | [21] | [22] | [23] | [58] | [24] | [25] | [26] | [27] | [28] | [29] | [30] | [31] | [32] | [33] | [34] | [35] | [36] | [37] | [38] | [59] | [39] | [40] | [41] | [42] | [43] | [44] | [45] | [46] | [47] | [48] | [49] | [50] | [51] | [52] | [53] | [54] | [55]
